Among the data in PMC12315041 (ACS medicinal chemistry letters, 2025) are Kd values, retold here.

For the assay, the target named is T1, RIPK1 (receptor-interacting protein kinase 1) (Homo sapiens, UniProt Q13546).
T1 sequence (Q13546 1-671): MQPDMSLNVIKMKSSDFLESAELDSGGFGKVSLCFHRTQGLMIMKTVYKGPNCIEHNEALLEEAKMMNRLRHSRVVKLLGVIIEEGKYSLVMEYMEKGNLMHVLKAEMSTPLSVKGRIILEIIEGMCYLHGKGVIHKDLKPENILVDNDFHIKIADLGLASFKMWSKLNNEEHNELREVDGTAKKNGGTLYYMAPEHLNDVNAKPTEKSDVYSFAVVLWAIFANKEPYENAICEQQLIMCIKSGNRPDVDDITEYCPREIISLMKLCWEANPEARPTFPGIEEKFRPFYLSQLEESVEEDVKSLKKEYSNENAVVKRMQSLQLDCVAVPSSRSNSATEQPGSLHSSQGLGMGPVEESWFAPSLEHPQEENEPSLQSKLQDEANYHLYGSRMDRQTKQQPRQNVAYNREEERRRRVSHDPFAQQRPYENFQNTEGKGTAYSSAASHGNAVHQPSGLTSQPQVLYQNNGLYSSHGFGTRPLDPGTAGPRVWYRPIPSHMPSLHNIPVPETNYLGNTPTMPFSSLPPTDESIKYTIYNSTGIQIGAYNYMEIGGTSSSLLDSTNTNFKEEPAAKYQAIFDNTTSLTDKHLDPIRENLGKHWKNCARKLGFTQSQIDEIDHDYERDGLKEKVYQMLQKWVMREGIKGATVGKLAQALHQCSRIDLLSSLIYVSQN
Kind of assay: TR-FRET saturation binding. Background: TR-FRET usually uses a lanthanide donor and a delayed reading to cut background.

SMILES strings stand for the structures.

As a reminder, the Kd is a measure of binding affinity in units of concentration. `Nc1ncnc2c1c(-c1ccc3c(c1)CCN3C(=O)Cc1cccc(OC(F)(F)F)c1)cn2CCCNC(=O)CCc1ccc2n1[B-](F)(F)[N+]1=C(c3ccc[nH]3)C=CC1=C2` [T2-BDP-589, T2-BODIPY-589]: the Kd was 443 nM. This counts as sub-micromolar.
